Measurements: PMC8694140, “Synthesis and photobiological applications of naphthalimide–benzothiazole conjugates: cytotoxicity and topoisomerase IIα inhibition” (RSC Advances, 2021)

Assays:
[1] = test system: HeLa (cervix) human cancer cell line; test: MTT cytotoxicity assay, HeLa; format: cell-based; details: Homo sapiens, 48 h
Experimental: (§1) Human malignant cell lines, i.e., MCF7 (breast), HeLa (cervix), and A549 (lung), as well as non-cancerous human cell line Hek293 (kidney), were cultured using the Ham's media or DMEM having 10% FBS, […] streptomycin, 100 U ml^−1 penicillin, and 50 mM glutamine. For seeding of cells, 96 well plates were used, maintaining the density of […] cells per well with the help of DMEM as a media having 10% FBS cells. Then, seeded cells were incubated in an incubator having a 5% CO2 supply at 37 °C. Compounds were added to the wells at 1, 10, and 100 μM concentrations, and cells were incubated for 48 h at 37 °C and then added 10 μl of MTT to each well prepared from 5 mg ml^−1 stock solution using 1 × PBS buffer and were incubated for 4 h at 37 °C in the dark. DMSO (100 μl) was used to dissolve the formazan crystals. To determine the concentration of formazan, the crystal absorbance difference was recorded at 570 nm. The percentage of relative cell toxicity was calculated by using the following eqn (1):1 [drawing 1]

[2] = target: T1, human serum albumin (HSA) (Homo sapiens, UniProt P02768); test: UV-vis absorption titration of HSA (Benesi–Hildebrand); format: binding; details: HSA 10 μM; for enhancement in absorbance of HSA at 280 nm: compound up to 7 μM; for Kd: UV-vis, phosphate buffer pH 7.4, 298 K, read-out: binding constant compound–HSA (Benesi–Hildebrand) (converted)
T1 sequence (P02768 25-609): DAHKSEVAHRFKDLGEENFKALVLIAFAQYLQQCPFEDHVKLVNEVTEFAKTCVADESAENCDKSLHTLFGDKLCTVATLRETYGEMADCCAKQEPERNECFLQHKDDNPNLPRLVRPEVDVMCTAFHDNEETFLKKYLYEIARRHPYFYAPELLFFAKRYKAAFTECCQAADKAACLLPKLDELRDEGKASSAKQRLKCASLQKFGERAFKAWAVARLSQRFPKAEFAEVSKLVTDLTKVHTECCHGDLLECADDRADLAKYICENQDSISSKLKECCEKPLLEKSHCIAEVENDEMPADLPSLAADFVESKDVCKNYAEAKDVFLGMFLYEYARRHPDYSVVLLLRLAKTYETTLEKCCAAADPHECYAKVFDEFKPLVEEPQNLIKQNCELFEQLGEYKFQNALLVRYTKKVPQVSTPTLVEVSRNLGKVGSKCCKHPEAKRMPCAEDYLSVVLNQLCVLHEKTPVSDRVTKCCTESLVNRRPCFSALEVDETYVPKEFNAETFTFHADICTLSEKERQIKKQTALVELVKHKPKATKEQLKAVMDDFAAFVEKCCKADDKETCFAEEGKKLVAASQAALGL
Experimental: To check the interactions between HSA and compounds, UV-vis absorption spectra of HSA (10 μM) were recorded in the absence and incremental additions of compounds 12 and 13 (7 μM). Noteworthy, enhancement in absorbance of HSA at 280 nm (57% for compound 12 and 51% for compound 13) on increasing concentrations of compounds indicated perturbations in the microenvironment of protein's chromophores as a result of interaction between HSA and compounds along with the development of new band at 348 nm (Fig. 4). Increasing the concentration of compounds also produces an enhancement in absorbance value at 348 nm. The binding constants for the compound–HSA system were calculated by Benesi–Hildebrand eqn (2)[32] as 1.75 × 10^5 M^−1 for compound 12 and 1.88 × 10^5 M^−1 for compound 13 (Fig. S57 ^†). These strong binding affinities are favorable for the adequate transportation of these compounds to their target sites.
To record the absorption spectra of HSA, a fixed amount of HSA (10 μM) was titrated with the increasing concentrations of compounds 12 and 13 (7 μM) in the phosphate buffer of pH 7.4 at 298 K. The phosphate buffer was used as a blank solution for baseline corrections. The absorption spectra were recorded in the range of 200–800 nm. […] To calculate the Kb value, the ratio of intercept to the slope was used as A0/(A − A0) versus 1/[compound] plots.

[3] = target: T1, human serum albumin (HSA); test: HSA fluorescence quenching (Stern–Volmer, modified Stern–Volmer, van't Hoff); format: binding; details: 308 K
[4] = target: T1, human serum albumin (HSA); test: Excited-state fluorescence lifetime of HSA; format: binding; details: compound 7 μM
Experimental: A fluorescence lifetime experiment was performed to discover the quenching mechanism of compounds 12 and 13 for interactions with HSA. The decay lifetime (τ) generally remains unaltered in ground state quenching while it gets changed in excited state quenching.[46,47] The fluorescence lifetime spectrum of HSA (7 μM) was performed upon increasing concentrations of compounds 12 and 13 (0–70 μM) (Fig. S65 ^†). […] Therefore, it can conclude that the fluorescence quenching of HSA by compounds 12 and 13 was characterized as a static quenching and thus formed a stable complex with HSA at the ground state.
Time-resolved fluorescence was recorded by taking a fixed amount of HSA (10 μM) with incremental additions of compounds (12 and 13) ([…]) by maintaining the ratio of HSA : compound = 1 : 0, 1 : 1, 1 : 5 and 1 : 10. The spectra were recorded at 345 nm emission wavelength in phosphate buffer of pH 7.4 at 298 K. To determine the average fluorescence lifetime (τ), the following eqn (7) was used.7 τ = ∑τiαiwhere τi and αi denote decay time and relative amplitude, respectively.

[5] = target: T1, human serum albumin (HSA); test: Synchronous fluorescence spectroscopy of HSA; format: binding; details: Δλ = 15 nm, tyrosine residue
Excerpt: Synchronous fluorescence spectroscopy (SFS) is commonly used to evaluate the effect of ligand binding on the microenvironment of protein and its amino acids. It is usually observed that a change in polarity of the chromophore of protein causes deviation in the excitation wavelength of a particular amino acid residue.[48,49] This deviation can provide information about the change in confirmation of HSA on the binding of ligand. The SFS of HSA was noted using a fixed difference in wavelengths (Δλ) of 15 nm and 60 nm of synchronized recording of excitation and emission monochromators, which are characteristics of tyrosine and tryptophan amino acid residues, respectively.[50,51] […] The addition of compounds 12 and 13 produced a slight blue shift of about 4 nm at Δλ = 15 nm, corresponding to a tyrosine residue.
The synchronous fluorescence experiment of HSA was performed at a fixed amount of HSA and increasing concentrations of compounds 12 and 13. The spectra were recorded by taking the difference between the wavelengths of excitation and emission (Δλ = λemi − λexc) at 15 nm and 60 nm.

[6] = test system: MCF7 (breast) human cancer cell line; test: MTT cytotoxicity assay, MCF7; format: cell-based; details: Homo sapiens, MCF7, 48 h
Experimental: as §1

| SMILES | IC50 [1] | enhancement in absorbance of HSA at 280 nm [2] | Kd [2] | K SV (Stern–Volmer quenching constant) [3] | K q (bimolecular quenching rate constant) [3] | n (average number of binding sites) [3] | ΔG of HSA binding [3] | α 1 of HSA fluorescence decay [4] | α 2 of HSA fluorescence decay [4] | α 3 of HSA fluorescence decay [4] | τ 3 of HSA fluorescence decay [4] | τ (average fluorescence lifetime of HSA) [4] | blue shift of synchronous fluorescence of HSA [5] | IC50 [6] |
| --- | --- | --- | --- | --- | --- | --- | --- | --- | --- | --- | --- | --- | --- | --- |
| C=CCn1cc(-c2nc3ccccc3s2)c2cc(-c3ccc4c5c(cccc35)C(=O)N(CCO)C4=O)ccc21 [Compound 12, 6-(1-Allyl-3-(benzo[d]thiazol-2-yl)-1H-indol-5-yl)-2-(2-hydroxyethyl)-1H-benzo[de]isoquinoline-1,3(2H)-dione] | 3.76 ± 0.2 µM | 57% | 5.71 µM | 5.19 10^6 M^−1 | 5.19 10^14 M^−1 s^−1 | 1.17 | -8.87 kJ/M | 0.42 | 0.20 | 0.38 | 0.80 ns | 3.13 ns | about 4 nm | 3.81 ± 0.19 µM |
| C#CCN1C(=O)c2cccc3c(-c4ccc5c(c4)c(-c4nc6ccccc6s4)cn5CC=C)ccc(c23)C1=O [Compound 13, 6-(1-Allyl-3-(benzo[d]thiazol-2-yl)-1H-indol-5-yl)-2-(prop-2-yn-1-yl)-1H-benzo[de]isoquinoline-1,3(2H)-dione] | 3.64 ± 0.19 µM | 51% | 5.32 µM | 2.38 10^6 M^−1 | 2.38 10^14 M^−1 s^−1 | 1.07 | -7.93 kJ/M | 0.41 | 0.23 | 0.36 | 0.84 ns | 3.25 ns | about 4 nm | 3.49 ± 0.12 µM |
